Assay results: PubChem BioAssay (NCI)
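1) Cells in 96-well plates. 2) Compound, 48 h, 5 concentrations. 3) Linear interpolation between surrounding doses. 4) Unreached endpoint = highest concentration. TGI: total growth inhibition.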

Legend:
Assay in all cases: DTP human tumour cell line panel, 48 h
HCC-2998 colon = test system: HCC-2998 colon
A498 renal = test system: A498 renal
HL-60(TB) leukemia = test system: HL-60(TB) leukemia
HCT-116 colon = test system: HCT-116 colon
SF-268 CNS = test system: SF-268 CNS
SK-MEL-28 melanoma = test system: SK-MEL-28 melanoma
DU-145 prostate = test system: DU-145 prostate
SF-295 CNS = test system: SF-295 CNS
OVCAR-8 ovarian = test system: OVCAR-8 ovarian
SNB-19 CNS = test system: SNB-19 CNS
NCI-H23 lung = test system: NCI-H23 lung
MALME-3M melanoma = test system: MALME-3M melanoma
HT29 colon = test system: HT29 colon
EKVX NSCLC = test system: EKVX NSCLC
PC-3 prostate = test system: PC-3 prostate
SF-539 CNS = test system: SF-539 CNS

Row | Structure (SMILES) | TGI (HCC-2998 colon) [µM] | TGI (A498 renal) [µM] | TGI (HL-60(TB) leukemia) [µM] | TGI (HCT-116 colon) [µM] | TGI (SF-268 CNS) [µM] | TGI (SK-MEL-28 melanoma) [µM] | TGI (DU-145 prostate) [µM] | TGI (SF-295 CNS) [µM] | TGI (OVCAR-8 ovarian) [µM] | TGI (SNB-19 CNS) [µM] | TGI (NCI-H23 lung) [µM] | TGI (MALME-3M melanoma) [µM] | TGI (HT29 colon) [µM] | TGI (EKVX NSCLC) [µM] | TGI (PC-3 prostate) [µM] | TGI (SF-539 CNS) [µM]
1 | CCN(CC)CCOC(c1cc(OC)ccc1OC)c1ccc2n1-c1ccccc1OC2 (stereo not given) | 20.9 | 24.1 | 30.4 | > 100 | 28.8 | 29 | 60.7 | 23.9 | 25.9 | 31.2 | 25.6 | 35.8 | 13.9 | 33.1 | 27.4 | 
2 | CCOC(=O)c1cc(=C2\CCN(CC(C)CC)C2=S)/c(=C(/O)CC)[nH]1 (stereo not given) |  | 29 | 27.3 | 28.7 | 46.3 | 34.8 | 30.2 | 34.4 | 56.6 | 34.7 | 33.6 | 23.3 | 48 | 35.3 | 38.8 | 24.9
3 | Cc1cccc(N2C(=O)C3ON(C(C(N)=O)c4ccccc4)C(c4c5ccccc5c(Cl)c5ccccc45)C3C2=O)c1C (stereo not given) |  | 32.2 | 23.3 | 3.84 | 27.3 | 41.7 | 43.2 | 23 | 25.1 | 18.4 | 32.1 | 34.7 | 14.9 | 22.5 | 17 | 16.8
4 | O=C1CC2C=CC(O)C(C1)C2 (stereo not given) | > 100 | > 100 | > 100 | > 100 | > 100 | > 100 | > 100 | > 100 | > 100 | > 100 | > 100 | > 100 | > 100 |  | > 100 | > 100
5 | CC(=O)NC1C(OCc2ccccc2)OC(CO)C(O)C1OCC(=O)N[C@@H](C)C(=O)N[C@H](CCC(=O)NCCNCCNc1c2ccccc2nc2cccc([N+](=O)[O-])c12)C(N)=O (stereo not given in full) | 22.5 | 48.1 | > 100 | 54.8 |  | > 100 | > 100 | > 100 | > 100 | > 100 | 35.3 | 55.5 | 72.3 | 91.1 | 73 | > 100
6 | [N-]=[N+]=Nc1c(Cl)c(=O)n(-c2ccccc2)c2ccccc12 | 42.7 |  | > 100 | 33.4 | 43.9 | 32.1 | > 100 | > 100 |  | > 100 | 36.7 | 43.9 | 59.3 |  | 70 | 42.3
7 | CO[C@@H](C(=O)OC1C=CC2(CC1)C(=O)N(C)c1ccccc12)c1ccccc1 (stereo not given in full) | > 100 | > 100 | 94 | > 100 |  | > 100 | > 100 | > 100 | > 100 | > 100 | > 100 |  | > 100 | > 100 | > 100 | 
8 | COC(=O)C1=C(C(=O)OC)C2OC1C1C2C2(C)C(C)=C(C)C1(C)S2=O (stereo not given) | 38.3 | 68.4 |  | 27 | 28.9 | 33.8 | 21.1 | > 84.8 | > 100 | 66.1 | 25.8 | 20.9 | > 49.9 | 27.6 | 45.7 | > 100
9 | O=C1CC(C(O)CO)CC(=O)N1 (stereo not given) | > 100 | > 100 | > 100 | > 100 | > 100 | > 100 | > 100 | > 100 | > 100 | > 100 | > 100 | > 100 | > 100 |  | > 100 | > 100
10 | O=C(/C(=C(/Br)I)c1ccccc1)c1ccccc1 | 30.1 | 28.7 | > 100 | 31.7 | 48.5 |  | 30.9 | 69.6 | 48.3 | > 100 | > 100 | 33.2 | 36.1 | 89.1 | > 100 | 37.7
11 | O=c1c2ccccc2[nH]c(=S)n1-c1ccc(N=Nc2cccc3c(O)cccc23)cc1 | > 100 |  | > 100 | > 100 | > 100 | > 100 | > 100 | > 100 | > 100 | > 100 | > 100 | > 100 | > 100 | > 100 | > 100 | > 100
12 | Cc1cn(C2C=CC(COP(=O)(OCC3=CC(=O)c4ccccc4C3=O)N(C)CCCCCl)O2)c(=O)[nH]c1=O (stereo not given) | 4.42 |  | 4.41 | 26.9 | 24.4 | 18.2 | 3.06 | 11.3 | 26.6 | 25.6 | 6.49 | 0.982 | 29.4 |  | 24.5 | 25.8
13 | Cc1cc(-c2nc3ccccc3s2)ccc1NS(=O)(=O)O | > 100 | > 100 |  | > 100 | > 100 | > 100 | > 100 | > 100 | > 100 | > 100 | > 100 | > 100 | > 100 | > 100 | > 100 | > 100
14 | O=c1[nH]cnc2c(C3OC(CO)C(O)C3O)c[nH]c12 (stereo not given) | > 100 |  | > 100 | > 100 | > 100 | > 100 | > 100 | > 100 | > 100 | > 100 | > 100 | > 100 | > 100 | > 100 | > 100 | > 100
15 | CCOC(=O)c1c(NC(=O)c2ccccc2)sc2c1CCCC2 |  | > 100 | > 100 | > 100 | > 100 | > 100 | > 100 | > 100 | > 100 | > 100 | > 100 | > 100 | > 100 | > 100 | > 100 | > 100
16 | CCCCc1c(O)nc(Nc2nc3ccccc3[nH]2)[nH]c1=O |  | > 100 | > 100 | > 100 | > 100 | > 100 | > 100 | > 100 | > 100 | > 100 | > 100 | > 100 | > 100 | > 100 | > 100 | > 100
